For 24 compounds, IC50 and Ki results are on record in ChEMBL document CHEMBL1130701, “Dual antagonists of platelet activating factor and histamine. 3. Synthesis, biological activity and conformational implications of substituted N-acyl-bis-arylcycloheptapiperazines” (Bioorg Med Chem Lett, 1998).

Assay [1] is filed under the species Homo sapiens. In words: tissue or blood. It counts as functional, organism-based. Particulars: Plasma.
The target in assay [2] is Histamine H1 receptor (Rattus norvegicus, UniProt P31390). Put plainly: Binding affinity against Histamine H1 receptor using receptor binding assay in rat brain membranes. It counts as cell membranes.

Bounds are passed on as bounds.

Chain of Histamine H1 receptor (P31390 whole entry): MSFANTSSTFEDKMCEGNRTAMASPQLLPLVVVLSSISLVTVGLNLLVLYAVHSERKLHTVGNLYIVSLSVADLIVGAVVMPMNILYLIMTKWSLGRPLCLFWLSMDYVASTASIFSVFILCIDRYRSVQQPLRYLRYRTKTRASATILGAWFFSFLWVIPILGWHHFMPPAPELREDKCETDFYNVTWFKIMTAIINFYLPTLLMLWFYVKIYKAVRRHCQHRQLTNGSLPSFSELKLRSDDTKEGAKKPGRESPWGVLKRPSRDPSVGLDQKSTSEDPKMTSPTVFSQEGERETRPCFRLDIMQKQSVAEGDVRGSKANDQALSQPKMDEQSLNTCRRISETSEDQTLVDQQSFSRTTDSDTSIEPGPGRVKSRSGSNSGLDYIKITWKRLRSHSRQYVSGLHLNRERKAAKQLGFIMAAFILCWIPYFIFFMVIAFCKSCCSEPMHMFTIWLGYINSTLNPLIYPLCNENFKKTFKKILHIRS

Usually IC50 stands for the concentration that gives 50% inhibition. Read a low IC50 as greater potency. For orientation: Ki means the equilibrium dissociation constant of an inhibitor or competing ligand from its target. Low values mean tighter binding, high ones weaker binding. Compound `Clc1ccc2c(c1)CCc1cccnc1C2N1CCNCC1` (stereo not given) gave a half-inhibitory concentration (IC50) in assay [1] of at least 23 µM. In assay [2], this compound showed an inhibition constant (Ki) of 0.0064 µM. The compound `O=CN1CCC(=C2c3ccc(Cl)cc3CCc3cccnc32)CC1` came in with an IC50 in assay [1] of 14 µM. `CC(=O)N1CCC(=C2c3ccc(Cl)cc3C=Cc3cccnc32)CC1`: the IC50 in assay [1] was 0.42 µM. For `O=C1CN(C2c3ccc(Cl)cc3CCc3cccnc32)CCN1` (stereo not given), the IC50 in assay [1] is above 50 µM. This compound came in with an inhibition constant (Ki) in assay [2] of 0.14 µM. Regarding `CC(=O)N1CCC(=C2c3ccccc3CCc3ccccc32)CC1`, in assay [1], half-maximal inhibition (IC50) required 41 µM. Take `CN1CCN(C2c3ccc(Cl)cc3CCc3cccnc32)CC1` (stereo not given): it took 28 µM to reach half-maximal inhibition in assay [1] (IC50). The compound also gave a Ki in assay [2] of 0.0065 µM.

`CC(=O)N1CCN(C2c3ccc(Cl)cc3C=Cc3cccnc32)CC1` (stereo not given) showed an IC50 in assay [1] of 0.66 µM.

`CC(=O)N1CCCN(C2c3ccc(Cl)cc3CCc3cccnc32)CC1` (stereo not given): in assay [1], half-maximal inhibition (IC50) required 13 µM. In assay [2], this compound gave a Ki of 0.97 µM.

Regarding `CCC(=O)N1CCN(C2c3ccc(Cl)cc3CCc3cccnc32)CC1` (stereo not given), it took 1.4 µM to reach half-maximal inhibition in assay [1] (IC50). Further, affinity in assay [2] was put at a Ki of 2.5 µM. The matching figures for `CC(=O)N1CCN([C@@H]2c3ccc(Cl)cc3CCc3cccnc32)CC1`: 1.3 µM and 3.6 µM. The matching figures for `CC(=O)N1CCN(C2c3ccc(Cl)cc3CCc3cccnc32)C[C@@H]1C` (stereo not given in full): 14 µM and at least 5 µM. The matching figures for `CCOC(=O)N1CCN(C2c3ccc(Cl)cc3CCc3cccnc32)CC1` (stereo not given): above 50 µM and at least 3.8 µM. Turning to `CC(=O)N1[C@H](C)CN(C2c3ccc(Cl)cc3CCc3cccnc32)C[C@@H]1C` (stereo not given in full), the IC50 in assay [1] was above 50 µM. This compound also gave an inhibitory constant (Ki) in assay [2] of at least 7.1 µM.

Take `O=C1CCC2CN(C3c4ccc(Cl)cc4CCc4cccnc43)CCN12` (stereo not given): 1.8 µM corresponded to half-maximal inhibition in assay [1] (IC50). This compound yielded a Ki in assay [2] of 3.6 µM. Consider `CCCC(=O)N1CCC(=C2c3ccc(Cl)cc3CCc3cccnc32)CC1`, for which the IC50 in assay [1] stood at 33 µM.

In assay [1], `CC(=O)N1CCN(C2c3ccc(Cl)cc3CCc3cccnc32)CC1` (stereo not given) registered an IC50 of 0.4 µM. Further, in assay [2], the inhibition constant Ki is 5.4 µM.

As for `CN1CCN(C2c3ccc(Cl)cc3CCc3cccnc32)CC1=O` (stereo not given), the concentration for half-maximal inhibition (IC50) in assay [1] was above 50 µM. In addition, the inhibition constant (Ki) in assay [2] came to 0.049 µM. Compound `CN(C)CCC(c1ccc(Cl)cc1)c1ccccn1` (stereo not given) [CHLORPHENIRAMINE] came in with a half-inhibitory concentration (IC50) in assay [1] above 50 µM. Still for that read-out and setting: the same measure for `CN1CCC(=C2c3ccc(Cl)cc3CCc3cccnc32)CC1`: at least 50 µM. In assay [1], `CC(=O)N1CCN(C2c3ccccc3CCc3ccccc32)CC1` displayed an IC50 of 26 µM. This compound also returned a Ki in assay [2] of 3.7 µM. The matching figures for `CC(=O)N1CCN([C@H]2c3ccc(Cl)cc3CCc3cccnc32)CC1`: 0.21 µM and above 10 µM.

`CCCC(=O)N1CCN(C2c3ccc(Cl)cc3CCc3cccnc32)CC1` (stereo not given) registered an IC50 in assay [1] of 15 µM. Besides, in assay [2], the inhibition constant (Ki) worked out at 3.6 µM.

Compound `CCC(=O)N1CCC(=C2c3ccc(Cl)cc3CCc3cccnc32)CC1` yielded an IC50 in assay [1] of 2.4 µM. With `O=CN1CCN(C2c3ccc(Cl)cc3CCc3cccnc32)CC1` (stereo not given), in assay [1], inhibition was half-maximal at 12 µM (IC50). This compound came in with a Ki in assay [2] of 0.29 µM.
